Data from US20220267298A1 (priority 2019, published 2022).
Values joined by “and” are separate entries in the source; they are usually repeats but may differ in a detail not shown here. Identical values can stand only once.

These compounds were tested against T1, GRK2 (Homo sapiens, UniProt P25098) (assay: biochemical). Settings: GRK2 IC50 (μM), 10 nM GRK2; 10 uM ATP.
T1 sequence (P25098 1-689): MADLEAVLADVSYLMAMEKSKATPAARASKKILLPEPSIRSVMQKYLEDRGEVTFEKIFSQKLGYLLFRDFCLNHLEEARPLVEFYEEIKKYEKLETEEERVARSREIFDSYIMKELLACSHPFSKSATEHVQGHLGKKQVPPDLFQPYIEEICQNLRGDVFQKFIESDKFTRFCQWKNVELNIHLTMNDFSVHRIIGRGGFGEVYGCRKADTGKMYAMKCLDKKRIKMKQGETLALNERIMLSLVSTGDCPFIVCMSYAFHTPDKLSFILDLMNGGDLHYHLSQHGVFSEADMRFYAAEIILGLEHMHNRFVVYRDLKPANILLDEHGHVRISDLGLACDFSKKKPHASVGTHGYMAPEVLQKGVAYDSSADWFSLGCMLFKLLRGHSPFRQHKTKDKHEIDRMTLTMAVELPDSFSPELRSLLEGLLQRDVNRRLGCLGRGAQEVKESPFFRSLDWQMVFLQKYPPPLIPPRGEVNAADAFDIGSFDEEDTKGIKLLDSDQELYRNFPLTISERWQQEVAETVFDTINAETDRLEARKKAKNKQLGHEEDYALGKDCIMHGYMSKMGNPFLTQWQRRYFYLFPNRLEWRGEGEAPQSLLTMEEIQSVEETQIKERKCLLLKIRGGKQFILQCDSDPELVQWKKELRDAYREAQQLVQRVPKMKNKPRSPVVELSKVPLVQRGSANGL
Protocol: Positive and negative control wells received an equal volume of DMSO. The final DMSO concentration in the assay is 1%.
The plate was placed in centrifuge equipped with a spin-bucket rotor and spun for 1 min at 1000 rpm.
GRK2 enzymatic reactions were initiated with the addition of 2 μL/well of 50 nM GRK2 in assay buffer. Plates were centrifuged for 1 min at 1000 rpm. For negative control wells, the order of reagent addition was reversed: 10 μL/well ADP detection mix (see below) was added first, followed by the addition of 2 μL/well of the GRK2 solution. Reaction mixtures were incubated at ambient temperature for 2 hours.
Following incubation, the reactions were quenched with 10 μL/well of the Transcreener ADP detection mix. […] The plates were then centrifuged for 1 min at 1000 rpm.
Fluorescence polarization values of the reaction mixtures were read on a Safire II plate reader after a 60 min incubation at ambient temperature. Excitation wavelength=590 nm; emission wavelength=650 nm.
The fluorescence polarization data were converted to % activity as follows:
% activity=(sample−NC)/(PC−NC)*100
where NC is the mean of negative control (ADP detection mix added prior to GRK2 addition), and PC is the mean of positive control (GRK2 reaction without inhibitor). IC50 values are determined from a 4-parameter fit, using the following equation:
Y=Bottom+(Top−Bottom)/(1+10^((Log IC50-X)*Hill slope)),
where X=log10 of the compound concentration.
`O=c1c2cc(-c3c[nH]nc3C(F)(F)F)ccc2ncn1Cc1c(F)cccc1F` [Compound 77, 3-[(2,6-Difluorophenyl)methyl]-6-[3-(trifluoromethyl)-1H-pyrazol-4-yl]quinazolin-4-one] gave an IC50 of over 20 µM. `CC(c1cccc(C(=O)NCc2ccc(F)cc2)c1)n1cnc2ccc(-c3cn[nH]c3)cc2c1=O` (stereo not shown) [Compound 61, N-[(4-Fluorophenyl)methyl]-3-[1-[4-oxo-6-(1H-pyrazol-4-yl)quinazolin-3-yl]ethyl]benzamide] was tested, and the IC50 was 0.007 µM. With `O=C(NCc1c(F)cccc1F)c1cc(F)cc(Cn2cnc3ccc(-c4cn[nH]c4)cc3c2=O)c1` [Compound 72, N-(2,6-Difluorobenzyl)-3-fluoro-5-((4-oxo-6-(1H-pyrazol-4-yl)quinazolin-3(4H)-yl)methyl)benzamide] the IC50 was under 0.01 µM. Compound `O=c1c2cc(-c3ccc(F)nc3)ccc2ncn1Cc1ccccc1` [Compound 82, 3-Benzyl-6-(6-fluoro-3-pyridyl)quinazolin-4-one] has an IC50 of over 100 µM. In the case of `COc1cccc(Cn2cnc3ccc(-n4cn[nH]c4=O)cc3c2=O)c1` [Compound 38, 3-[(3-Methoxyphenyl)methyl]-6-(5-oxo-1H-1,2,4-triazol-4-yl)quinazolin-4-one], the IC50 is reported as 0.129 µM. `COCCNc1nccc(-c2ccc3ncn(Cc4cccc(OC)c4)c(=O)c3c2)n1` [Compound C6, 6-[2-(2-Methoxyethylamino)pyrimidin-4-yl]-3-[(3-methoxyphenyl)methyl]quinazolin-4-one] showed an IC50 of over 50 µM. For `CCC(c1cccc(OC)c1)n1cnc2ccc(-c3cn[nH]c3)cc2c1=O` (stereo not shown) [Compound 35, 3-[1-(3-Methoxyphenyl)propyl]-6-(1H-pyrazol-4-yl)quinazolin-4-one], the IC50 was 0.122 µM. In the case of `COc1cccc([C@@H](C)n2cnc3ccc(-c4cn[nH]c4)cc3c2=O)c1` [Compound 39, 3-[(1R)-1-(3-Methoxyphenyl)ethyl]-6-(1H-pyrazol-4-yl)quinazolin-4-one], the IC50 is reported as 0.009 µM and 0.017 µM. `O=c1c2cc(-c3cn[nH]c3)ccc2ncn1Cc1c(F)cccc1F` [Compound 78, 3-[(2,6-Difluorophenyl)methyl]-6-(1H-pyrazol-4-yl)quinazolin-4-one] was tested, and the IC50 was 0.801 µM. `O=C(NCc1c(F)cccc1F)c1ccc(Cn2cnc3ccc(-c4cn[nH]c4)cc3c2=O)cc1` [Compound C3, N-[(2,6-Difluorophenyl)methyl]-4-[[4-oxo-6-(1H-pyrazol-4-yl)quinazolin-3-yl]methyl]benzamide] was tested, and the IC50 was about 20 µM. Compound `COc1cccc(Cn2c(C)nc3ccc(-c4cn[nH]c4)cc3c2=O)c1` [Compound 20, 3-[(3-Methoxyphenyl)methyl]-2-methyl-6-(1H-pyrazol-4-yl)quinazolin-4-one] has an IC50 of 0.014 µM. With `[2H]C([2H])(Oc1cccc([C@@H](C)n2cnc3ccc(-c4cn[nH]c4)cc3c2=O)c1)C(=O)O` [Compound 26, 2,2-Dideuterio-2-[3-[(1R)-1-[4-oxo-6-(1H-pyrazol-4-yl)quinazolin-3-yl]ethyl]phenoxy]acetic Acid] the IC50 was 0.143 µM. `CC(=O)c1cccc(Cn2cnc3ccc(-c4cn[nH]c4)cc3c2=O)c1` [Compound 41, 3-[(3-Acetylphenyl)methyl]-6-(1H-pyrazol-4-yl)quinazolin-4-one] showed an IC50 of 0.065 µM. `NC1CCN(c2nc3ccc(-c4cn[nH]c4)cc3c(=O)n2Cc2cccc(C(=O)NCc3ccc(F)cc3)c2)C1` (stereo not shown) [Compound 55, 3-[[2-(3-Aminopyrrolidin-1-yl)-4-oxo-6-(1H-pyrazol-4-yl)quinazolin-3-yl]methyl]-N-[(4-fluorophenyl)methyl]benzamide] showed an IC50 of 0.014 µM. `O=C(NCc1ccc(F)cc1)c1cccc(Cn2cnc3ccc(-c4cn[nH]c4)c(F)c3c2=O)c1` [Compound 57, 3-[[5-Fluoro-4-oxo-6-(1H-pyrazol-4-yl)quinazolin-3-yl]methyl]-N-[(4-fluorophenyl)methyl]benzamide] showed an IC50 of under 0.01 µM. Compound `CC(c1cccc(C(=O)NC2CN(C)C2)c1)n1cnc2ccc(-c3cn[nH]c3)cc2c1=O` (stereo not shown) [Compound 24, N-(1-Methylazetidin-3-yl)-3-[1-[4-oxo-6-(1H-pyrazol-4-yl)quinazolin-3-yl]ethyl]benzamide] has an IC50 of 0.096 µM.
